Measured values reported in publication PMC3849439, “Peptides Corresponding to the Predicted Heptad Repeat 2 Domain of the Feline Coronavirus Spike Protein Are Potent Inhibitors of Viral Infection” (PLoS ONE, 2013).
pIC50: −log10 of the molar value. “Also recorded” adds a separate entry of the source.

How the values were obtained:
[1] = tested on: Feline coronavirus type II NTU156 strain; settings: for Inhibition of viral titer (%): highest concentration tested 20 μM, NTU156 MOI 0.1, fcwf-4 cells, triplicate wells; for pIC50: NTU156 at MOI 0.1 preincubated with peptide 1 h, then on fcwf-4 cells 1 h, supernatant collected 48 h postinfection and titrated, CPE at 72 h, IC50 by interpolation
fcwf-4 cells = test: MTT cytotoxicity assay; settings: 72 h at 37°C, 6.25-200 μM, absorbance 570 nm, triplicate
[2] = tested on: Feline coronavirus type II NTU156 strain; test: Combination of FP5 with human IFN-α, viral titer by plaque reduction assay; format: cell-based; settings: for Viral titer reduction, agent alone: supernatant collected after 48 h, triplicate

Compound | Inhibition of viral titer (%) [1] | CC50 (fcwf-4 cells) | pIC50 [1] | Viral titer reduction, combination ([2]; 20 μM FP5 with 10 to 1000 IU IFN-α, or 10 μM FP5 with 1000 IU IFN-α, NTU156 MOI 0.1, fcwf-4 cells, 48 h) | Inhibitory effect of the combination (in words) ([2]; 20 μM FP5 with 10 to 1000 IU IFN-α, or 10 μM FP5 with 1000 IU IFN-α, two-way analysis of variance P < 0.05) | Inhibitory effect of the combination (in words) ([2]; 10 units of IFN-α combined with 20 μM FP5) | Viral titer reduction, agent alone ([2]; FP5 20 μM alone, NTU156 MOI 0.1, fcwf-4 cells) | Viral titer reduction, agent alone ([2]; IFN-α 1000 IU alone, preincubated with cells 24 h, NTU156 MOI 0.1, fcwf-4 cells)
CC[C@H](C)[C@H](NC(=O)[C@H](CCC(=O)O)NC(=O)CNC(=O)[C@@H](NC(=O)[C@H](CC(C)C)NC(=O)[C@H](CC(N)=O)NC(=O)[C@H](CC(C)C)NC(=O)[C@H](Cc1ccc(O)cc1)NC(=O)[C@@H](NC(=O)[C@H](C)NC(=O)[C@H](CC(N)=O)NC(=O)[C@@H](N)Cc1ccccc1)[C@@H](C)O)[C@@H](C)O)C(=O)N[C@@H](CC(=O)O)C(=O)N[C@@H](CC(=O)O)C(=O)N[C@@H](CC(C)C)C(=O)N[C@@H](CCC(=O)O)C(=O)N[C@@H](Cc1ccccc1)C(=O)N[C@@H](CCCNC(=N)N)C(=O)N[C@@H](CO)C(=O)N[C@@H](CCC(=O)O)C(=O)N[C@@H](CCCCN)C(=O)N[C@@H](CC(C)C)C(=O)O [FP1] | 27% | ≧200 μM | – | – | – | – | – | –
CC[C@H](C)[C@H](NC(=O)[C@H](CCC(=O)O)NC(=O)CNC(=O)[C@@H](NC(=O)[C@H](CC(C)C)NC(=O)[C@H](CC(N)=O)NC(=O)[C@H](CC(C)C)NC(=O)[C@H](Cc1ccc(O)cc1)NC(=O)[C@@H](NC(=O)[C@H](C)NC(=O)[C@H](CC(N)=O)NC(=O)[C@@H](N)Cc1ccccc1)[C@@H](C)O)[C@@H](C)O)C(=O)N[C@@H](CC(=O)O)C(=O)N[C@@H](CC(=O)O)C(=O)N[C@@H](CC(C)C)C(=O)N[C@@H](CCC(=O)O)C(=O)N[C@@H](Cc1ccccc1)C(=O)N[C@@H](CCCNC(=N)N)C(=O)N[C@@H](CO)C(=O)N[C@@H](CCC(=O)O)C(=O)N[C@@H](CCCCN)C(=O)N[C@@H](CC(C)C)C(=O)N[C@@H](Cc1c[nH]cn1)C(=O)N[C@@H](CC(N)=O)C(=O)N[C@H](C(=O)N[C@H](C(=O)N[C@H](C(=O)N[C@@H](CCC(=O)O)C(=O)N[C@@H](CC(C)C)C(=O)O)C(C)C)[C@@H](C)O)[C@@H](C)O [FP2] | 29% | ≧200 μM | – | – | – | – | – | –
CC[C@H](C)[C@H](NC(=O)[C@H](CC(N)=O)NC(=O)[C@H](CC(=O)O)NC(=O)[C@@H](NC(=O)[C@H](CC(C)C)NC(=O)[C@@H](NC(=O)[C@H](C)NC(=O)[C@H](CC(C)C)NC(=O)[C@H](CCC(=O)O)NC(=O)[C@@H](NC(=O)[C@@H](NC(=O)[C@@H](NC(=O)[C@H](CC(N)=O)NC(=O)[C@H](Cc1c[nH]cn1)NC(=O)[C@H](CC(C)C)NC(=O)[C@H](CCCCN)NC(=O)[C@H](CCC(=O)O)NC(=O)[C@H](CO)NC(=O)[C@H](CCCNC(=N)N)NC(=O)[C@H](Cc1ccccc1)NC(=O)[C@H](CCC(=O)O)NC(=O)[C@H](CC(C)C)NC(=O)[C@H](CC(=O)O)NC(=O)[C@H](CC(=O)O)NC(=O)[C@@H](NC(=O)[C@H](CCC(=O)O)NC(=O)CNC(=O)[C@@H](NC(=O)[C@H](CC(C)C)NC(=O)[C@H](CC(N)=O)NC(=O)[C@H](CC(C)C)NC(=O)[C@H](Cc1ccc(O)cc1)NC(=O)[C@@H](NC(=O)[C@H](C)NC(=O)[C@H](CC(N)=O)NC(=O)[C@@H](N)Cc1ccccc1)[C@@H](C)O)[C@@H](C)O)[C@@H](C)CC)[C@@H](C)O)[C@@H](C)O)C(C)C)[C@@H](C)CC)[C@@H](C)CC)C(=O)O [FP3] | 72% | ≧200 μM | 4.85 | – | – | – | – | –
CC[C@H](C)[C@H](NC(=O)[C@H](C)NC(=O)[C@H](CC(C)C)NC(=O)[C@H](CCC(=O)O)NC(=O)[C@@H](NC(=O)[C@@H](NC(=O)[C@@H](NC(=O)[C@H](CC(N)=O)NC(=O)[C@H](Cc1c[nH]cn1)NC(=O)[C@H](CC(C)C)NC(=O)[C@H](CCCCN)NC(=O)[C@H](CCC(=O)O)NC(=O)[C@H](CO)NC(=O)[C@H](CCCNC(=N)N)NC(=O)[C@H](Cc1ccccc1)NC(=O)[C@H](CCC(=O)O)NC(=O)[C@H](CC(C)C)NC(=O)[C@H](CC(=O)O)NC(=O)[C@H](CC(=O)O)NC(=O)[C@@H](NC(=O)[C@H](CCC(=O)O)NC(=O)CNC(=O)[C@@H](NC(=O)[C@H](CC(C)C)NC(=O)[C@H](CC(N)=O)NC(=O)[C@H](CC(C)C)NC(=O)[C@H](Cc1ccc(O)cc1)NC(=O)[C@@H](NC(=O)[C@H](C)NC(=O)[C@H](CC(N)=O)NC(=O)[C@@H](N)Cc1ccccc1)[C@@H](C)O)[C@@H](C)O)[C@@H](C)CC)[C@@H](C)O)[C@@H](C)O)C(C)C)C(=O)N[C@@H](CC(C)C)C(=O)N[C@H](C(=O)N[C@@H](CC(=O)O)C(=O)N[C@@H](CC(N)=O)C(=O)N[C@H](C(=O)N[C@@H](CC(N)=O)C(=O)N[C@@H](CC(N)=O)C(=O)N[C@H](C(=O)N[C@@H](CC(C)C)C(=O)N[C@H](C(=O)N[C@@H](CC(N)=O)C(=O)N[C@@H](CC(C)C)C(=O)O)C(C)C)[C@@H](C)O)[C@@H](C)CC)[C@@H](C)CC [FP4] | 93% | ≧200 μM | 5.74 | – | – | – | – | –
CC[C@H](C)[C@H](NC(=O)[C@H](C)NC(=O)[C@H](CC(C)C)NC(=O)[C@H](CCC(=O)O)NC(=O)[C@@H](NC(=O)[C@@H](NC(=O)[C@@H](NC(=O)[C@H](CC(N)=O)NC(=O)[C@H](Cc1c[nH]cn1)NC(=O)[C@H](CC(C)C)NC(=O)[C@H](CCCCN)NC(=O)[C@H](CCC(=O)O)NC(=O)[C@H](CO)NC(=O)[C@H](CCCNC(=N)N)NC(=O)[C@H](Cc1ccccc1)NC(=O)[C@H](CCC(=O)O)NC(=O)[C@H](CC(C)C)NC(=O)[C@H](CC(=O)O)NC(=O)[C@H](CC(=O)O)NC(=O)[C@@H](NC(=O)[C@H](CCC(=O)O)NC(=O)CNC(=O)[C@@H](NC(=O)[C@H](CC(C)C)NC(=O)[C@H](CC(N)=O)NC(=O)[C@H](CC(C)C)NC(=O)[C@H](Cc1ccc(O)cc1)NC(=O)[C@@H](NC(=O)[C@H](C)NC(=O)[C@H](CC(N)=O)NC(=O)[C@@H](N)Cc1ccccc1)[C@@H](C)O)[C@@H](C)O)[C@@H](C)CC)[C@@H](C)O)[C@@H](C)O)C(C)C)C(=O)N[C@@H](CC(C)C)C(=O)N[C@H](C(=O)N[C@@H](CC(=O)O)C(=O)N[C@@H](CC(N)=O)C(=O)N[C@H](C(=O)N[C@@H](CC(N)=O)C(=O)N[C@@H](CC(N)=O)C(=O)N[C@H](C(=O)N[C@@H](CC(C)C)C(=O)N[C@H](C(=O)N[C@@H](CC(N)=O)C(=O)N[C@@H](CC(C)C)C(=O)N[C@@H](CCC(=O)O)C(=O)N[C@@H](Cc1c[nH]c2ccccc12)C(=O)N[C@@H](CC(C)C)C(=O)N[C@@H](CC(N)=O)C(=O)N[C@@H](CCCNC(=N)N)C(=O)N[C@H](C(=O)N[C@@H](CCC(=O)O)C(=O)O)[C@@H](C)CC)C(C)C)[C@@H](C)O)[C@@H](C)CC)[C@@H](C)CC [FP5] | – | ≧200 μM | 5.88 | up to 4.08 LogPFU/ml | complete inhibitory effect; also recorded: synergetic effects | complete inhibition | 1.81 LogPFU/ml | –
IFN-α | – | – | – | – | – | – | – | 1.46 LogPFU/ml
